Values of other authors, collected in paper PMC3563429 (Journal of the American Chemical Society, 2013).

Test system: human calpain protease 1
Conditions: for inhibitory action against the cysteine protease calpain 1: described in the patent literature; for IC50: read-out: IC50 against human calpain protease 1, previously reported

| IC50 [nM] | Compound | inhibitory action against the cysteine protease calpain 1 |
| --- | --- | --- |
| 39 | Thalassospiramide D1 [Thalassospiramide D1 (15)] | nanomolar inhibitory action |
| 80 | CCCCCC/C=C\CC(=O)N[C@@H](Cc1ccc(O)cc1)[C@@H](O)CC(=O)N[C@H](C(=O)N[C@@H](CO)[C@@H](O)CC(=O)N[C@H](C(=O)N[C@@H]1C=CC(=O)N[C@@H](C(C)C)C(=O)N(C)[C@@H](Cc2ccc(O)cc2)C(=O)OC1)C(C)C)C(C)C [Compound 12, thalassospiramide B1] | nanomolar inhibitory action |
